Common to all, as to type: cell-based
In experiment [1] the target is T1, human TLR7 (Homo sapiens, UniProt Q9NYK1).
T1 construct: host or cells: HEK-Blue cells
T1 sequence (Q9NYK1 27-1049): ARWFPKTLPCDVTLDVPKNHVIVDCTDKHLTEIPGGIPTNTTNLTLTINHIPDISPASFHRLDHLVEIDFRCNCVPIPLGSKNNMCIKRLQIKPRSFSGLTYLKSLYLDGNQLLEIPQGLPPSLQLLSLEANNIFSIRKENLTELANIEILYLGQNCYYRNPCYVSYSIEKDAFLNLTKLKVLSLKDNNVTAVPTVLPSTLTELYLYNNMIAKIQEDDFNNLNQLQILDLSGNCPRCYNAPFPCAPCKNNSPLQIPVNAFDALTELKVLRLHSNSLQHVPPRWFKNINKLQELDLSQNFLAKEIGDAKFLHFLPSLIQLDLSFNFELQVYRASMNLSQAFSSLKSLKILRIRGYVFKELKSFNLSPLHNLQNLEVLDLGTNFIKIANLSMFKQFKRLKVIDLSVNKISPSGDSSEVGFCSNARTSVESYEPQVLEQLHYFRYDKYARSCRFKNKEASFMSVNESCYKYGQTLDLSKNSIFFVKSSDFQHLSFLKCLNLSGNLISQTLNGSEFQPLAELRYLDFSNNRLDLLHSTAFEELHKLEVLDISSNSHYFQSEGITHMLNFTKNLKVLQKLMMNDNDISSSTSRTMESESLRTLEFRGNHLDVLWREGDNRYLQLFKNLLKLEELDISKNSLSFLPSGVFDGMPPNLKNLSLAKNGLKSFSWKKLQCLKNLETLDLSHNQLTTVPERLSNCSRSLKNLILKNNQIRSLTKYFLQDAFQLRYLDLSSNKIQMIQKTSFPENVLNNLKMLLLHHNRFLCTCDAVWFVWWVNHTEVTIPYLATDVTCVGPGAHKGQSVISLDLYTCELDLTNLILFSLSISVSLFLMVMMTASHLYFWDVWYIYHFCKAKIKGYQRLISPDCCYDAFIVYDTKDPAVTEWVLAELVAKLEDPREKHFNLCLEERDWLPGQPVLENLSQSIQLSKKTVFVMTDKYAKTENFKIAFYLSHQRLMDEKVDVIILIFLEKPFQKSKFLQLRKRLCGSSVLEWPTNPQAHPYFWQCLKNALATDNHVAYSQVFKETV
Kind of experiment: TLR7 inhibition reporter assay (HEK-Blue cells, SEAP reporter, gardiquimod stimulation). To be noted: HEK-Blue cells overexpressing human TLR7, SEAP reporter, gardiquimod 7.5 μM. The gist of the method: (§1)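 Percent inhibition is derived from SEAP signal, scaled between agonist-plus-DMSO wells and wells given a known inhibitor. Test compounds (0.05 nM–50 μM) are pre-incubated 30 min at room temperature before agonist addition (TLR7: 7.5 μM gardiquimod; TLR8: 15.9 μM R848; TLR9: 5 nM ODN2006) and 22 h culture at 37 °C.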

Experiment [2] concerns the target T2, human TLR8 (Homo sapiens, UniProt Q9NR97).
T2 construct: host or cells: HEK-Blue cells
T2 sequence (Q9NR97 27-1041): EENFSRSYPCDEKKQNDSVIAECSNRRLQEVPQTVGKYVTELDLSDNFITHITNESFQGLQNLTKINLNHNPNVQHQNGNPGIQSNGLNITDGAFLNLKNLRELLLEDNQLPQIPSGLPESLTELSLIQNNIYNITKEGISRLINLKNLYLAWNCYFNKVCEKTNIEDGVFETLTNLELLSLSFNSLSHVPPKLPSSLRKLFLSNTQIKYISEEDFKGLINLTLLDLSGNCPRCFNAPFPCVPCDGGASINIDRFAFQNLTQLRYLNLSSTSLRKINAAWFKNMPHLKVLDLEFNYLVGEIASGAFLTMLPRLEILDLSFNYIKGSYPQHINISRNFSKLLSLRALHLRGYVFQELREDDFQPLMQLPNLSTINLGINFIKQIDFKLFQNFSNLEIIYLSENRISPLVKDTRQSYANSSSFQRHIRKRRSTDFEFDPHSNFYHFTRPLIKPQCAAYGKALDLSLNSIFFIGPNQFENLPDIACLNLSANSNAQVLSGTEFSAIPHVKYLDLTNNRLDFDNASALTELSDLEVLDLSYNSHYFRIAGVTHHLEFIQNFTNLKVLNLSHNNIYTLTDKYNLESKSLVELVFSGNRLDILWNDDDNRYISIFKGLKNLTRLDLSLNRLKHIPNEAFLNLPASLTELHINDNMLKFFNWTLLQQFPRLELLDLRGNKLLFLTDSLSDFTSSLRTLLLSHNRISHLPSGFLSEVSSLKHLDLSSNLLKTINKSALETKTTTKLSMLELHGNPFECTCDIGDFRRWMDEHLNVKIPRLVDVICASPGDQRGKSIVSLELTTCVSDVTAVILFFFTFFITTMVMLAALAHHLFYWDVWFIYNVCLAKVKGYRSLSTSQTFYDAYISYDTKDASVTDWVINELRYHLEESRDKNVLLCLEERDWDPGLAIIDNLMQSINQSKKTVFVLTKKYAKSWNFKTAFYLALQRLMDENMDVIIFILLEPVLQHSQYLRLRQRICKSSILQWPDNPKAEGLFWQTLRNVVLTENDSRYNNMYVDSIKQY
Kind of experiment: TLR8 inhibition reporter assay (HEK-Blue cells, SEAP reporter, R848 stimulation). The conditions noted are these: HEK-Blue cells overexpressing human TLR8, SEAP reporter, R848 15.9 μM. The method in brief:
as §1

The target in experiment [3] is T3, human TLR9 (Homo sapiens, UniProt Q9NR96).
T3 construct: host or cells: HEK-Blue cells
T3 sequence (Q9NR96 26-1032): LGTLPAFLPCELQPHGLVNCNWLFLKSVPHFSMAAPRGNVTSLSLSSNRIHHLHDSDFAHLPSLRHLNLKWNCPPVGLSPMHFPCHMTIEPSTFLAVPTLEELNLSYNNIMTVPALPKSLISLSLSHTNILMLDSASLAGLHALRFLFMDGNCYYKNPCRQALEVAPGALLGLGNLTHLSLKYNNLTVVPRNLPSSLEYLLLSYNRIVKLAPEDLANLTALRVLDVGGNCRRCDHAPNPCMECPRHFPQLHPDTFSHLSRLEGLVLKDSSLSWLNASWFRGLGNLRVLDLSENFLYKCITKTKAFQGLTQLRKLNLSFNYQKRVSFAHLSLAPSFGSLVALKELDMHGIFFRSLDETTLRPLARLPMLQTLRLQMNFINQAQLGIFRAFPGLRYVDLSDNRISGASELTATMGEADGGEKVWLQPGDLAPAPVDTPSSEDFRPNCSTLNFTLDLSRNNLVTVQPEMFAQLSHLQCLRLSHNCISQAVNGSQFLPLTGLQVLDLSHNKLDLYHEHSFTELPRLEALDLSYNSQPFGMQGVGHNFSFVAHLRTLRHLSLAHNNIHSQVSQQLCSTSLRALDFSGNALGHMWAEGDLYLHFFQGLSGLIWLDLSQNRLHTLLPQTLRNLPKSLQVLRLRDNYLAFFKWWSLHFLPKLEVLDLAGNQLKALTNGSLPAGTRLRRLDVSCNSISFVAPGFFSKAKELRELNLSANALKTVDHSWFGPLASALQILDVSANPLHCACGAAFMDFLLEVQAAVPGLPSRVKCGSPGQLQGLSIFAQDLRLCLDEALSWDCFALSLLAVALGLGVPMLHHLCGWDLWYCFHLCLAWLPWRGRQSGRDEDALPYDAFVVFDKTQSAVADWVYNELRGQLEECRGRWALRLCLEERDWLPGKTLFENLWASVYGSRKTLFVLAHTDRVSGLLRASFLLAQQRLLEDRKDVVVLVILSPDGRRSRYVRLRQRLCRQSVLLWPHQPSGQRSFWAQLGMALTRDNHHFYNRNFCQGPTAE
Kind of experiment: TLR9 inhibition reporter assay (HEK-Blue cells, SEAP reporter, ODN2006 stimulation). The conditions noted are these: HEK-Blue cells overexpressing human TLR9, SEAP reporter, ODN2006 5 nM. The method in brief: as §1

Molecules are shown by their SMILES.

With `COc1cc(-c2[nH]c3ccc(C4CCC(N5CC[C@@H](N(C)C)C5)CC4)cc3c2C(C)C)cn2ncnc12` (stereo partly drawn) [Example 28], the half-maximal inhibitory concentration (IC50) in experiment [1] is 0.17 nM; in experiment [2], 0.26 nM; in experiment [3] it was 328 nM.

With `COc1cc(-c2[nH]c3ccc(C4CCC(N5CCC[C@H]5C(N)=O)CC4)cc3c2C(C)C)cn2ncnc12` (stereo partly drawn) [Example 29], the IC50 in experiment [1] was 0.26 nM; in experiment [2], 1.9 nM; in experiment [3] it was 909 nM.

As for `COc1cc(-c2[nH]c3ccc(C4CCC(N5CC[C@@H](N(C)C)C5)CC4)cc3c2C(C)C)cn2ncnc12` (stereo partly drawn) [Example 30], the IC50 in experiment [1] was found to be 3 nM; in experiment [2] it was 5 nM; in experiment [3], 824 nM.

With `COc1cc(-c2[nH]c3ccc(C4CCC(N5CCC[C@H]5C(N)=O)CC4)cc3c2C(C)C)cn2ncnc12` (stereo partly drawn) [Example 31], the IC50 in experiment [1] came out at 1 nM; in experiment [2] it was 6.1 nM; in experiment [3], 2110 nM.

For the molecule `COc1cc(-c2[nH]c3ccc(C4CCC(N5CC[C@H](N(C)C)C5)CC4)cc3c2C(C)C)cn2ncnc12` (stereo partly drawn) [Example 32], the half-inhibitory concentration (IC50) in experiment [1] turned out to be 0.14 nM; in experiment [2], 0.16 nM; in experiment [3], 170 nM.

Consider `COc1cc(-c2[nH]c3ccc(C4CCC(N5CC[C@H](N(C)C)C5)CC4)cc3c2C(C)C)cn2ncnc12` (stereo partly drawn) [Example 33], for which the IC50 in experiment [1] came out at 2 nM; in experiment [2], 3.4 nM; in experiment [3], 491 nM.

As to `COc1cc(-c2[nH]c3ccc(C4CCC(N5CCCC(F)(F)C5)CC4)cc3c2C(C)C)cn2ncnc12` (stereo not drawn) [Example 34], the figures for the IC50 in experiment [1], in experiment [2] and in experiment [3] were 5 nM, 23 nM and 20500 nM, respectively.

On to `COc1cc(-c2[nH]c3ccc(C4CCC(N5CCCC(F)(F)C5)CC4)cc3c2C(C)C)cn2ncnc12` (stereo not drawn) [Example 35], for which the IC50 was determined as 55 nM in experiment [1], 122 nM in experiment [2] and 18000 nM in experiment [3].

Regarding `COc1cc(-c2[nH]c3ccc(C4CCC(N5C[C@@H](C)O[C@@H](C)C5)CC4)cc3c2C(C)C)cn2ncnc12` (stereo partly drawn) [Example 40], the IC50 in experiment [1] was 0.75 nM; in experiment [2] it was 1.2 nM; in experiment [3], 2510 nM.

For the molecule `COc1cc(-c2[nH]c3ccc(C4CCC(N5CC(C)OC(C)C5)CC4)cc3c2C(C)C)cn2ncnc12` (stereo not drawn) [Example 41], the results for the IC50 in experiment [1], in experiment [2] and in experiment [3] were 4 nM, 7.7 nM and 2280 nM, respectively.

Regarding `COc1cc(-c2[nH]c3ccc(C4CCC(NC5(C)CC5)CC4)cc3c2C(C)C)cn2ncnc12` (stereo not drawn) [Example 42], the values for the IC50 in experiment [1], in experiment [2] and in experiment [3] were 0.2 nM, 1 nM and 2610 nM, respectively.

For `COc1cc(-c2[nH]c3ccc(C4CCC(NC5(C)CC5)CC4)cc3c2C(C)C)cn2ncnc12` (stereo not drawn) [Example 43], the values for the 50% inhibitory concentration (IC50) in experiment [1], in experiment [2] and in experiment [3] were 1 nM, 13 nM and 4370 nM, respectively.

Turning to `Cc1c(-c2[nH]c3ccc(C4CCC(NC5(C)COC5)CC4)cc3c2C(C)C)cn2ncnc2c1C` (stereo not drawn) [Example 48], the IC50 is 0.55 nM in experiment [1], 0.4 nM in experiment [2] and 1850 nM in experiment [3].

For `Cc1cc(-c2[nH]c3ccc(C4CCC(N5CCOCC5)CC4)cc3c2C(C)C)cc(C)n1` (stereo not drawn) [Example 54], the IC50 in experiment [1] was 2 nM; in experiment [2], 3.3 nM; in experiment [3], 618 nM.

Consider `Cc1cc(-c2[nH]c3ccc(C4CCC(N5CCOCC5)CC4)cc3c2C(C)C)cc(C)n1` (stereo not drawn) [Example 55], for which the IC50 was 8 nM in experiment [1], 15 nM in experiment [2] and 480 nM in experiment [3].

Turning to `Cc1cc(-c2[nH]c3ccc(C4CCC(NC5COC5)CC4)cc3c2C(C)C)cn2ncnc12` (stereo not drawn) [Example 57], the figures for the IC50 in experiment [1], in experiment [2] and in experiment [3] were 1 nM, 8.2 nM and 6060 nM, respectively.

For `Cc1cc(-c2[nH]c3ccc(C4CCC(NC5COC5)CC4)cc3c2C(C)C)cn2ncnc12` (stereo not drawn) [Example 59], the IC50 came to 0.14 nM in experiment [1], 0.88 nM in experiment [2] and 3140 nM in experiment [3].

`Cc1cc(-c2[nH]c3ccc(C4CCC(NC5COC5)CC4)cc3c2C(C)C)cc(C)n1` (stereo not drawn) [Example 60]: the IC50 in experiment [1] was 0.26 nM; in experiment [2], 1.8 nM; in experiment [3] it was 501 nM.

For `Cc1cc(-c2[nH]c3ccc(C4CCC(NC5COC5)CC4)cc3c2C(C)C)cc(C)n1` (stereo not drawn) [Example 61], the IC50 worked out at 1 nM in experiment [1], 3.9 nM in experiment [2] and 201 nM in experiment [3].

As for `CCN(C)C1CCC(c2ccc3[nH]c(-c4cc(C)c5ncnn5c4)c(C(C)C)c3c2)CC1` (stereo not drawn) [Example 62], the IC50 was found to be 0.98 nM in experiment [1], 6.3 nM in experiment [2] and 1830 nM in experiment [3].

Take `CCN(C)C1CCC(c2ccc3[nH]c(-c4cc(C)c5ncnn5c4)c(C(C)C)c3c2)CC1` (stereo not drawn) [Example 63]: the IC50 in experiment [1] stood at 0.81 nM; in experiment [2], 5.9 nM; in experiment [3] it was 5920 nM.

In the case of `COc1cc(-c2[nH]c3ccc(C4CCC(NC5COC5)CC4)cc3c2C(C)C)cn2ncnc12` (stereo not drawn) [Example 64], the IC50 in experiment [1] was determined as 0.15 nM; in experiment [2], 0.87 nM; in experiment [3], 3030 nM.
